Assay results taken from PubChem BioAssay AID720585 (Broad Institute, 2013).
The source made the active and inactive calls.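 Rule for the calls: active = fitted curve falling to -50% or lower, with AC50 no more than twice the sample's top valid dose; inactive = the rest, including changes in the wrong direction.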

Key:
[1] = ATP-based viability loss in A549 cells – cell-based, CellTiter-Glo luminescence, dry powder samples, cytotoxicity control, dose response (AID 720585); conditions: A549 viability, CellTiter-Glo ATP luminescence, 72 h; at 26 µM (top of the series)
[2] = tested on: A549 viability, CellTiter-Glo ATP luminescence, 72 h; experiment: as above

SMILES: COc1ccc(NC(=O)N2CCN(c3ccccc3)CC2)cc1
- activity change, negative = cytotoxicity [1]: -3.72% (inactive)

SMILES: CC(C)(C)c1ccc(C(=O)N2CCN(c3ccc4c(c3)OCO4)CC2)cc1
- activity change, negative = cytotoxicity [1]: -3.25% (inactive)

SMILES: O=C(Nc1ccc2[nH]ccc2c1)N1CCN(c2ccccc2)CC1
- activity change, negative = cytotoxicity [1]: -0.377% (inactive)

SMILES: O=C(Nc1ccc2snnc2c1)N1CCN(c2ccccc2)CC1
- activity change, negative = cytotoxicity [1]: -13.4% (inactive)

SMILES: COc1ccc(C(=O)N2CCN(c3ccc(C(C)=O)cc3)CC2)cc1
- activity change, negative = cytotoxicity [1]: 13.7% (inactive)

SMILES: Cc1ccc(-c2cc(C(F)(F)F)n3nc(C(=O)Nc4cccnc4)cc3n2)cc1
- activity change, negative = cytotoxicity [1]: -7.78% (inactive)

SMILES: CCc1ccc(N2CCN(C(=O)c3ccc4c(c3)OCO4)CC2)cc1
- AC50 [2]: > 26 µM (inactive)

SMILES: Cc1cc(C)n2nc(C(=O)Nc3cccnc3)nc2n1
- AC50 [2]: > 26 µM (inactive)

SMILES: CC(=O)c1ccc(N2CCN(C(=O)c3ccc4c(c3)OCCO4)CC2)cc1
- activity change, negative = cytotoxicity [1]: -10.1% (inactive)

SMILES: COc1cccc(NC(=O)N2CCN(c3ccccc3)CC2)c1
- activity change, negative = cytotoxicity [1]: 8.71% (inactive)

SMILES: O=C(c1ccc2c(c1)OCO2)N1CCN(c2ccc(Cl)cc2)CC1
- activity change, negative = cytotoxicity [1]: -6.96% (inactive)

SMILES: COc1ccc(-c2cc(C(F)(F)F)n3nc(C(=O)Nc4cccnc4)cc3n2)cc1
- activity change, negative = cytotoxicity [1]: 5.08% (inactive)

SMILES: CC(=O)c1ccc(N2CCN(C(=O)c3cccc(Cl)c3)CC2)cc1
- activity change, negative = cytotoxicity [1]: 4.97% (inactive)

SMILES: CC(=O)c1ccc(N2CCN(C(=O)c3ccc4c(c3)OCO4)CC2)cc1
- activity change, negative = cytotoxicity [1]: -12.8% (inactive)

SMILES: Cc1ccc(/C=C(\CC(=O)O)c2nc3ccccc3s2)cc1[N+](=O)[O-]
- activity change, negative = cytotoxicity [1]: 7.43% (inactive)

SMILES: CC(=O)c1ccc(N2CCN(C(=O)c3cccnc3)CC2)cc1
- activity change, negative = cytotoxicity [1]: 0.559% (inactive)

SMILES: O=C(O)CC/C(=C\c1ccc([N+](=O)[O-])cc1)c1nc2ccccc2s1
- activity change, negative = cytotoxicity [1]: 5.24% (inactive)

SMILES: Cc1nc2cc(NC(=O)N3CCN(c4ccccc4)CC3)ccc2o1
- activity change, negative = cytotoxicity [1]: -4.28% (inactive)

SMILES: CC(=O)c1ccc(N2CCN(C(=O)c3ccc4ncsc4c3)CC2)cc1
- activity change, negative = cytotoxicity [1]: 2.15% (inactive)

SMILES: COC(=O)c1c(C(=O)OC)c(-c2cccc(F)c2)n2c1CS(=O)C2 (centres undefined)
- activity change, negative = cytotoxicity [1]: 2.89% (inactive)

SMILES: CC(=O)c1ccc(N2CCN(C(=O)c3ccccc3)CC2)cc1
- AC50 [2]: > 26 µM (inactive)

SMILES: CC(=O)c1ccc(N2CCN(Cc3ccc4c(c3)OCO4)CC2)cc1
- activity change, negative = cytotoxicity [1]: -4.27% (inactive)

SMILES: CCN(CC)c1ccc2cc(C(=O)c3cccs3)c(=O)oc2c1
- activity change, negative = cytotoxicity [1]: 7.58% (inactive)

SMILES: O=C(Nc1ccc(Cl)c(-c2nc3ccccc3[nH]2)c1)c1cccnc1
- AC50 [2]: > 26 µM (inactive)

SMILES: COc1cccc(NC(=O)CCC2CCN(C(=O)c3ccc(C(C)=O)s3)CC2)c1
- activity change, negative = cytotoxicity [1]: -3.35% (inactive)

SMILES: O=C(c1ccc2c(c1)OCO2)N1CCN(c2ccccc2)CC1
- activity change, negative = cytotoxicity [1]: -3.52% (inactive)

SMILES: O=C(O)CC/C(=C\c1ccccc1[N+](=O)[O-])c1nc2ccccc2s1
- activity change, negative = cytotoxicity [1]: -7.05% (inactive)

SMILES: O=C(Nc1ccc(F)cc1)N1CCN(c2ccccc2)CC1
- activity change, negative = cytotoxicity [1]: -4.84% (inactive)

SMILES: CC(=O)c1ccc(N2CCN(C(=O)c3ccc(Cl)cc3)CC2)cc1
- activity change, negative = cytotoxicity [1]: 3.76% (inactive)

SMILES: CC(=O)c1ccc(N2CCN(C(=O)c3ccc(Br)cc3)CC2)c(F)c1
- activity change, negative = cytotoxicity [1]: -2.87% (inactive)

SMILES: O=C(c1ccc2c(c1)OCO2)N1CCN(Cc2ccccc2)CC1
- activity change, negative = cytotoxicity [1]: 9.39% (inactive)

SMILES: COc1cc(/C=C/C(=O)Nc2cccnc2)cc(OC)c1OC
- activity change, negative = cytotoxicity [1]: 11.1% (inactive)

SMILES: COc1cccc(C(=O)N2CCN(c3ccc(C(C)=O)cc3)CC2)c1
- activity change, negative = cytotoxicity [1]: -3.71% (inactive)

SMILES: CC(=O)c1ccc(N2CCN(C(=O)c3ccc(C)cc3)CC2)cc1
- activity change, negative = cytotoxicity [1]: -8.81% (inactive)

SMILES: O=C(Nc1ccncc1)c1cc2nc(C3CC3)cc(C(F)F)n2n1
- activity change, negative = cytotoxicity [1]: 2.81% (inactive)

SMILES: O=C(Nc1ccc2snnc2c1)N1CCCCC1
- activity change, negative = cytotoxicity [1]: -9.31% (inactive)

SMILES: CCc1ccc(C(=O)N2CCN(Cc3ccc4c(c3)OCO4)CC2)cc1
- activity change, negative = cytotoxicity [1]: -0.901% (inactive)

SMILES: COc1ccc(N2CCN(C(=O)c3ccc4c(c3)OCO4)CC2)cc1
- activity change, negative = cytotoxicity [1]: -3.29% (inactive)

SMILES: Cc1cc(C)n2nc(C(=O)Nc3cccnc3)cc2n1
- activity change, negative = cytotoxicity [1]: 0.879% (inactive)

SMILES: O=C(Nc1ccccc1)N1CCN(c2ccccc2)CC1
- activity change, negative = cytotoxicity [1]: -0.224% (inactive)

SMILES: O=C(c1ccc2c(c1)OCO2)N1CCN(c2ccc(F)cc2)CC1
- activity change, negative = cytotoxicity [1]: -0.413% (inactive)

SMILES: O=C(Nc1cccc(Cl)c1)N1CCN(c2ccccc2)CC1
- activity change, negative = cytotoxicity [1]: -1.38% (inactive)

SMILES: CC(=O)c1ccc(N2CCN(C(=O)c3ccc(F)cc3)CC2)cc1
- activity change, negative = cytotoxicity [1]: -0.22% (inactive)

SMILES: CCOC(=O)N1CCN(C(=O)Nc2ccc3snnc3c2)CC1
- activity change, negative = cytotoxicity [1]: -11% (inactive)

SMILES: O=C(Nc1cccnc1)c1cc2nc(-c3cccs3)cc(C(F)(F)F)n2n1
- activity change, negative = cytotoxicity [1]: -3.55% (inactive)

SMILES: O=C(Nc1ccc2snnc2c1)N1CCOCC1
- activity change, negative = cytotoxicity [1]: 9.86% (inactive)

SMILES: O=C(Nc1cccc(F)c1)N1CCN(c2ccccc2)CC1
- activity change, negative = cytotoxicity [1]: 5.56% (inactive)

SMILES: Cc1cccc(/C=C(\CCC(=O)O)c2nc3ccccc3s2)c1
- activity change, negative = cytotoxicity [1]: -7.62% (inactive)

SMILES: Cc1ccc(NC(=O)N2CCN(c3ccccc3)CC2)cc1
- activity change, negative = cytotoxicity [1]: -5.15% (inactive)

SMILES: O=C(Nc1cccnc1)N1CCN(c2ccccc2)CC1
- activity change, negative = cytotoxicity [1]: -2.28% (inactive)

SMILES: O=C(Nc1ccc(Cl)cc1)c1cc2nc(C3CC3)cc(C(F)(F)F)n2n1
- activity change, negative = cytotoxicity [1]: 12.6% (inactive)

SMILES: CC(=O)c1ccc(N2CCN(C(=O)c3cccc(F)c3)CC2)cc1
- activity change, negative = cytotoxicity [1]: -1.71% (inactive)

SMILES: Cc1ccc(/C=C(\CCC(=O)O)c2nc3ccccc3s2)cc1
- activity change, negative = cytotoxicity [1]: -2.14% (inactive)

SMILES: Cc1ccccc1/C=C(\CCC(=O)O)c1nc2ccccc2s1
- AC50 [2]: > 26 µM (inactive)

SMILES: Cc1nc2ccc(NC(=O)N3CCN(c4ccccc4)CC3)cc2s1
- activity change, negative = cytotoxicity [1]: 0.35% (inactive)

SMILES: O=C(COc1ccc2ccc(=O)oc2c1)N1CCN(c2ccc(F)cc2)CC1
- activity change, negative = cytotoxicity [1]: -15.6% (inactive)

SMILES: Cc1ccc(/C=C(\CCC(=O)O)c2nc3ccccc3s2)cc1[N+](=O)[O-]
- activity change, negative = cytotoxicity [1]: -3.79% (inactive)

SMILES: O=C(Nc1cccnc1)c1cnn2c(C(F)F)cc(C3CC3)nc12
- activity change, negative = cytotoxicity [1]: -2.75% (inactive)

SMILES: O=C(Nc1cccnc1)c1cnn2c(C(F)(F)F)cc(-c3ccccc3)nc12
- activity change, negative = cytotoxicity [1]: -2.52% (inactive)
